Holding throughout (assay): inhibition of tumour cell growth, NCI panel, 48 h
Assay [1] deals with A498.
The test system of assay [2] is MOLT-4.
The test system of assay [3] is OVCAR-8.
The subject of assay [4] is SF-539.
Assay [5] relates to HL-60.
For assay [6], the system named is M14.
The subject of assay [7] is EKVX.
Assay [8] relates to HOP-92.
Assay [9] has as its system SW-620.
Assay [10] has as its system A549.
For assay [11], the system named is CAKI-1.
Assay [12] relates to MCF7.
The test system of assay [13] is SF-268.
The subject of assay [14] is SK-OV-3.
Assay [15] concerns SK-MEL-2.
In assay [16] the test system is OVCAR-4.
Assay [17] deals with HT-29.
Assay [18] concerns NCI/ADR-RES.
For assay [19], the system named is UO-31.

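Growth conditions: 96-well plates. Treatment: test compound, 48 hours, 5 concentrations. Analysis: linear interpolation between bracketing concentrations; unreached endpoints set to highest concentration. Here, GI50 denotes the concentration required for 50% inhibition of growth.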 Calls of active or inactive are those of the source. Cut-off read from the data, not from the text of the source: active = GI50 up to about 1.1 µM and inactive = higher.

On to `O=C(Nc1ccc(-c2cn3ccccc3n2)cc1)c1cc(Br)ccc1O`, for which the GI50 in assay [1], in [2], in [3], in [4], in [5] and in assay [6] was > 100 µM (inactive) each time. In addition, the GI50 in [7], in [8], in assay [9], in assay [10], in [11] and in assay [12] was > 100 µM (inactive) throughout. In addition, the GI50 in assay [13], in assay [14], in [15], in assay [16], in [17] and in [18] was > 100 µM (inactive) in each case.

As to `COC(=O)c1cc(C)ccc1C1CN=NC12Cc1cccc(C)c1C2=O` (configuration not stated), the GI50 is 47.6 µM (inactive) in assay [1]; 18.7 µM (inactive) in [2]; 33.1 µM (inactive) in assay [3]; 51.6 µM (inactive) in [4]; 12.7 µM (inactive) in assay [5]; 38.9 µM (inactive) in assay [19]. Moreover, the GI50 in [6] was 16.7 µM (inactive); in assay [7], 23 µM (inactive); in assay [8], 30.5 µM (inactive); in assay [9] it was 38.4 µM (inactive); in assay [10], 31.7 µM (inactive); in assay [11] it was 43.3 µM (inactive). Besides, the GI50 was 30.1 µM (inactive) in assay [12]; 49.7 µM (inactive) in [13]; 25.5 µM (inactive) in [16]; 36 µM (inactive) in assay [17]; 25.5 µM (inactive) in [18].

For `O=C1CCCC2=C1CC1=C(CCCC1=O)N2c1ccccc1`, the GI50 in assay [1], in [2], in [3], in assay [4], in [5] and in [19] was > 100 µM (inactive) throughout. Further, the GI50 in [6], in [7], in assay [8], in assay [9], in [10] and in [11] was > 100 µM (inactive) each time. Moreover, the GI50 in assay [12], in [13], in [14], in [16], in [17] and in [18] was > 100 µM (inactive) in each case.

Consider `Nc1nc(N)c2nc(CNc3ccc(C(=O)NC(CCNC(=O)c4ccccc4C(=O)O)C(=O)O)cc3)cnc2n1` (configuration not stated), for which the GI50 in assay [1] is 0.054 µM (active); in assay [2] it was < 0.0154 µM (active); in assay [3] it was 0.01 µM (active); in [4] it was < 0.0256 µM (active); in [19] it was 0.00802 µM (active); in [6], 0.01 µM (active). Further, the GI50 in [7] was > 100 µM (inactive); in assay [8], 0.0698 µM (active); in [9], 0.01 µM (active); in [10], 0.01 µM (active); in assay [11] it was 0.01 µM (active); in assay [12], 0.01 µM (active). Besides, the GI50 was 0.0101 µM (active) in assay [13]; > 100 µM (inactive) in [14]; > 100 µM (inactive) in [15]; > 100 µM (inactive) in assay [16]; 0.01 µM (active) in assay [17]; < 0.0173 µM (active) in assay [18].

In the case of `N=C(c1cccs1)C1(N2CCCCC2)CCCCC1`, the GI50 is 17.7 µM (inactive) in [1]; 15.7 µM (inactive) in [2]; 13.2 µM (inactive) in [5]; 16.1 µM (inactive) in assay [19]; 20.3 µM (inactive) in [6]; 20.9 µM (inactive) in [7]. Further, the GI50 in assay [8] is 20.8 µM (inactive); in assay [9] it was 16.6 µM (inactive); in assay [10] it was 27.7 µM (inactive); in assay [11] it was 15.3 µM (inactive); in assay [12], 16.6 µM (inactive); in assay [13] it was 21.1 µM (inactive). For the same compound, the GI50 in assay [14] was 19.6 µM (inactive); in [15], 16.6 µM (inactive); in [16] it was 20.5 µM (inactive); in [17] it was 17.3 µM (inactive); in assay [18], 25.4 µM (inactive).

With `CCN(CC)c1nc(N(C)C)c2cc(OC)ccc2n1`, the GI50 in [1] was 32.6 µM (inactive); in assay [2], 18.5 µM (inactive); in assay [3], 26.2 µM (inactive); in assay [4] it was 21.3 µM (inactive); in assay [5] it was 16.6 µM (inactive); in assay [19], 19.3 µM (inactive). For the same compound, the GI50 in assay [6] is 22.7 µM (inactive); in [7] it was 25.1 µM (inactive); in [8], 24.2 µM (inactive); in assay [9] it was 24 µM (inactive); in [10], 27.9 µM (inactive); in [11] it was 44.6 µM (inactive). Further, the GI50 is 22.2 µM (inactive) in [12]; 25.8 µM (inactive) in [13]; 36.6 µM (inactive) in assay [15]; 43.6 µM (inactive) in [16]; 10.2 µM (inactive) in [17]; 24.1 µM (inactive) in [18].

As to `COc1cc(/C=C/c2nc(N)nnc2C)cc(OC)c1OC`, the GI50 was 18 µM (inactive) in assay [1]; 38.8 µM (inactive) in assay [2]; 13 µM (inactive) in assay [3]; 3.03 µM (inactive) in assay [5]; 4.71 µM (inactive) in [19]; 33.3 µM (inactive) in assay [6]. Moreover, the GI50 was 18.1 µM (inactive) in assay [7]; 16.6 µM (inactive) in assay [8]; > 57.8 µM (inactive) in [9]; 20.3 µM (inactive) in [10]; 6.56 µM (inactive) in assay [11]; 4.8 µM (inactive) in [12]. For the same compound, the GI50 in assay [13] was 21.5 µM (inactive); in [14], 31.5 µM (inactive); in [15], > 37.9 µM (inactive); in [16] it was 27.9 µM (inactive); in assay [17], 10.6 µM (inactive); in assay [18], 11.2 µM (inactive).

In the case of `Cc1ccc2c(O)cc(-c3ccsc3)nc2n1`, the GI50 in [1] was 4.07 µM (inactive); in assay [2] it was 3.56 µM (inactive); in assay [3], 4.06 µM (inactive); in assay [4], 5.93 µM (inactive); in assay [5], 2.17 µM (inactive); in assay [19], 2.32 µM (inactive). Also, the GI50 in assay [6] was 3.21 µM (inactive); in assay [7], 16.9 µM (inactive); in assay [8], > 24.6 µM (inactive); in [9], 1.75 µM (inactive); in assay [10] it was 5.24 µM (inactive); in assay [11], 6.95 µM (inactive). The GI50 in [12] is 3.08 µM (inactive); in [13], 14.4 µM (inactive); in assay [14], 10 µM (inactive); in assay [16] it was > 29.9 µM (inactive); in assay [17], 5.62 µM (inactive); in [18], 2.29 µM (inactive).
